# Tested on: human serum albumin
# Experiment: Albumin binding, ultrafiltration assay in human blood plasma
# Assay type: in vitro ADME
# Description: The logD values, cell uptake and internalization as well as PSMA-binding affinities (KD values) of [^225Ac]Ac-SibuDAB and [^225Ac]Ac-PSMA-617 (~50 kBq/nmol) were determined according to previously reported protocols (Supplementary Material: Sections S3–S5). Relative albumin-binding affinities were determined using an ultrafiltration assay according to an adapted version of a recently published protocol (Supplementary Material: Section S6).
# Table S1. PSMA-binding affinity expressed as KD values determined for SibuDAB and PSMA-617 labeled with actinium-225 or lutetium-177.
# Radioligand KD Value [nM] 95% Confidence interval n […]
# Purpose: The affinity of [225Ac]Ac-SibuDAB to serum albumin in mouse and human blood plasma was assessed and compared to that of [177Lu]Lu-SibuDAB to determine the impact of the radionuclide on the albumin-binding properties of SibuDAB.
# Methods: Relative albumin-binding affinities were determined using an ultrafiltra-tion assay according to a slightly adapted version of a published protocol. The concen-tration of mouse serum albumin (MSA) and human serum albumin (HSA) in samples of mouse and human plasma, respectively, was determined using a DRI-CHEM Analyzer (FUJIFILM, 4000i). […] The activity in the retained protein fraction (A bound), in the filtrate (Afiltrate) and in the filter unit (Afilter) were measured separately in a γ-counter (Perkin Elmer Wallac Wizard 1480). […]
smiles,measurement,value
CC(C)Cc1ccc(C(C)C(=O)NC(CCN)C(=O)NCCCCC(NC(=O)CN2CCN(CC(=O)[O-])CCN(CC(=O)[O-])CCN(CC(=O)[O-])CC2)C(=O)NCC2CCC(C(=O)NC(Cc3ccc4ccccc4c3)C(=O)NCCCCC(NC(=O)NC(CCC(=O)O)C(=O)O)C(=O)O)CC2)cc1.[225Ac+3] (stereo not shown) [[^225Ac]Ac-SibuDAB],"relative albumin-binding affinity, higher than for [177Lu]Lu-SibuDAB",1.4 fold
